Test results from paper PMC11178805, “Ligand-based design of [^18F]OXD-2314 for PET imaging in non-Alzheimer’s disease tauopathies” (Nature Communications, 2024).

How the values were obtained:
MAO-B = target: T1, MAO-B (Homo sapiens, UniProt P27338); assay: In vitro pharmacology screen (Eurofins): MAO-B; conditions: read-out: inhibition of MAO-B binding
T1 construct: purchased Eurofins, France (contract screening)
T1 sequence (P27338 1-520): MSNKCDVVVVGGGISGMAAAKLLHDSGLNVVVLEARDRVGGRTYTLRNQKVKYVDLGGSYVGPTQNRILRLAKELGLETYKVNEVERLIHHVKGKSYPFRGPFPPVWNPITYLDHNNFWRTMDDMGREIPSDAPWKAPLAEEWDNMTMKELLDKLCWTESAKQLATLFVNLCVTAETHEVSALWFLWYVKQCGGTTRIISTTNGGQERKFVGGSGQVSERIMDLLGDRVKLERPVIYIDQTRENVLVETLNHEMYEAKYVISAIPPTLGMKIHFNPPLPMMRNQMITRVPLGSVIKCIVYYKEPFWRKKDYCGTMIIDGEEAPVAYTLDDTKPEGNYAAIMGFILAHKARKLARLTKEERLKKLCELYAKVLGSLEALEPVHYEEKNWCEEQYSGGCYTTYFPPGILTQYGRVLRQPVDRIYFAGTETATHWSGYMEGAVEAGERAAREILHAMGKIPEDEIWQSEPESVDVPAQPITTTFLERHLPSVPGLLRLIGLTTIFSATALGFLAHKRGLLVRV
Procedure: (§1) OXD-2314 binding to CNS receptors was calculated as a percentage of inhibition of a receptor-specific radioligand. Enzyme inhibition was calculated as the percent inhibition of baseline enzyme activity where inhibition above 50% was considered significant. […] Norepinephrine transports are expressed in low concentration throughout the brain and its relative concentration are not affected by aging or neurodegeneration. 5-lipoxygenase may be overexpressed in aging brain and play some role in neurodegeneration, which could be necessary to further investigate in vivo[42]. Off-target binding to monoamine oxidase A and B (MAO-A and MAO-B) has been seen with some tau PET radiotracers[43],[44].

[1] = target: T2, 4R-tau aggregates in CBD tissue (Homo sapiens, UniProt P10636); assay: Competition binding vs [^3H]OXD-2314 in CBD tissue
T2 construct: tissue Neurodegenerative Disease Brain Bank at UCSF; host or cells: human CBD brain, middle frontal gyrus (pool of three) or putamen (one subject)
T2 sequence (P10636 1-441 isoform P10636-8): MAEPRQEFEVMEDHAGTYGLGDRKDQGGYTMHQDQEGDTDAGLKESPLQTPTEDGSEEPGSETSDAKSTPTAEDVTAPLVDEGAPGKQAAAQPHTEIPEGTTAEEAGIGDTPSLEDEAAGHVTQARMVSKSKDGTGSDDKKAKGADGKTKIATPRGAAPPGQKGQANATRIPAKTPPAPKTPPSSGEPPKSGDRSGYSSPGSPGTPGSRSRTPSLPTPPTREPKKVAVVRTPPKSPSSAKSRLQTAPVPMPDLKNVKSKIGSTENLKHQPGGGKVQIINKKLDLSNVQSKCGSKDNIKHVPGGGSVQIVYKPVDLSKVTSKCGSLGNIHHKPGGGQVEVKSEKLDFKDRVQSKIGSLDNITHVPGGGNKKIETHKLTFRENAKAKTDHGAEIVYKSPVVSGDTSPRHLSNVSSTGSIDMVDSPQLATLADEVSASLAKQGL
Procedure: (§2) Fresh frozen, autopsy-confirmed human PD anterior cingulate cortex brain tissue blocks (1 cm^3) were obtained from Dr. Thomas Beach at Banner/Sun Health AZ with funding from the Michael J. Fox Foundation and contained frequent α-synuclein aggregates and no other detectable aggregated amyloid species. The frozen tissue blocks were prepared for the binding assays as previously described[47],[48], except that equal quantities of the homogenates of three AD brains (AD1-AD3, Table S1) were pooled, as were homogenates from three PSP brains (PSP1-PSP3), three CBD brains (CBD1-CBD3), three Pick’s brains (PiD1-PiD3), and 4 PD brains (PD1-PD4) in order to help minimize the inter-subject variability within the different neuropathological groups. Individual subcortical brain tissues from a PSP subject (PSP4) and a CBD subject (CBD4), as well as with the middle frontal cortex of a control subject, were prepared for the binding assays as previously described[47],[48].
(§3) The equilibrium inhibition constant (Ki) values of the unlabeled compounds were determined versus tritium-labeled radioligands using published methods.

[2] = target: T2, 4R-tau aggregates in CBD tissue; assay: Competition binding vs [^3H]OXD-2115 in CBD tissue; conditions: vs [^3H]OXD-2115, CBD tissue, n = 1
Procedure: as §2, §3

[3] = target: 3R/4R-tau aggregates in AD tissue (Homo sapiens, UniProt P10636); assay: Competition binding vs [^3H]OXD-2314 in AD tissue
3R/4R-tau aggregates in AD tissue, sequence (P10636 623-758 limits assumed): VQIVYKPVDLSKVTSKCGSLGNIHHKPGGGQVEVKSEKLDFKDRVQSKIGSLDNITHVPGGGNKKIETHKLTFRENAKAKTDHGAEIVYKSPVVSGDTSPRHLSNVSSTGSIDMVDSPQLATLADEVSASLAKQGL
Procedure: as §2, §3

[4] = target: T3, norepinephrine transporter(h) (Homo sapiens, UniProt P23975); assay: In vitro pharmacology binding screen (Eurofins): norepinephrine transporter; conditions: read-out: inhibition of antagonist radioligand (protriptyline) binding to norepinephrine transporter(h)
T3 construct: purchased Eurofins, France (contract screening)
T3 sequence (P23975 whole entry): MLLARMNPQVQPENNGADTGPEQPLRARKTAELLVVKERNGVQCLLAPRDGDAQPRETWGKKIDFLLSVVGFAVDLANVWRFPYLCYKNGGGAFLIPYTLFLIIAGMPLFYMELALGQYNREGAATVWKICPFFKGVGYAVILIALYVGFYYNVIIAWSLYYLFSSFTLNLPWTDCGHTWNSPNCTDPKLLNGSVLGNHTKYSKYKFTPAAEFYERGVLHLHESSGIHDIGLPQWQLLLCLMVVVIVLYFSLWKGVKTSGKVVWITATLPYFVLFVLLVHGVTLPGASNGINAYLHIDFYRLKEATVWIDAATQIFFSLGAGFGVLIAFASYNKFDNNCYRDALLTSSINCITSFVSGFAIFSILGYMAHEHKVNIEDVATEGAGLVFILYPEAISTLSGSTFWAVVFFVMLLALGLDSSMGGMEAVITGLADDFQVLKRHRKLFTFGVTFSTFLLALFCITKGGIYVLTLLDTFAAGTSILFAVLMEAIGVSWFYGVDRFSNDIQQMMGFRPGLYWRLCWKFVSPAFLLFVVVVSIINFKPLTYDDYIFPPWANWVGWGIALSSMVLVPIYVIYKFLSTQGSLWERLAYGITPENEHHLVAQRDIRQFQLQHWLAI
Procedure: as §1

[5] = Whole-body PET-CT biodistribution and dose estimation in rats; format: in vivo
Description: Six rats (3 male, 19.9 ± 6.2 MBq; and 3 female, 20.8 ± 3.2 MBq) were imaged using PET-CT for whole-body biodistribution of radioactivity and dose estimation using standard mass and density of the organs for adult male and female subjects, respectively (Figure S17). […] The estimated whole-body effective dose was 21.3 ± 3.1 and 22.5 ± 0.9 µSv/MBq for adult male and female models, respectively, with the highest absorbed dose of 50.6 ± 16.9 µGy/MBq in the large intestine.
A total of 8 healthy adult rats (Sprague-Dawley, 384 ± 56 g; 4/4 M/F) underwent PET imaging following bolus injection of [^18F]OXD-2314 (20.5 ± 4.1 MBq), with two animals (M/F) scanned for 120 min with the head in the centre of PET field-of-view (FOV) whereas six animals (3/3 M/F) scanned for 180 min at three bed positions (head-to-bottom) with 15 frames (2×15 s, 2×30 s, 2×60 s, 1×120 s, 1×180 s, 2×240 s, 2×300 s, and 3×600 s) to cover the whole body. PET images were acquired using a nanoScan™ PET/CT scanner (Mediso, Budapest, Hungary) with rats anesthetized under isoflurane in O2 (1.5–2%, 1 L/min) throughout the imaging session and monitored closely for body temperature and respiration rate. A scout CT was acquired for PET FOV positioning, then a material map CT image was acquired for PET corrections of attenuation and scatter and for PET/CT co-registration to define anatomic brain regions of interest. For the brain scans, aacquired list-mode data were sorted into thirty-nine three-dimensional (3D) (3×5 s, 3×15 s, 3×20 s, 7×60 s, 17×180 s, and 6×600 s), true sinograms (ring difference 84). The 3D sinograms were converted in 2D sinograms using Fourier rebinning with corrections for detector geometry, efficiencies, attenuation, and scatter before image reconstruction using 2D filtered back projection with a Hann filter at a cut-off of 0.50 cm^−1. The analytical reconstruction was also used for dose assessment of the multi-frame whole-body images. All data were corrected for dead time and were decay-corrected to the start of acquisition. Iteratively reconstructed images with the manufacturer’s proprietary 3D algorithm (6 subsets, 4 iterations) were used for PET and CT co-registration, for co-registration of subject’s CT with a stereotactic MR atlas of brain[51], for organ region-of-interest (ROI) placement, and for presentation in figures. Filtered back projection images were used to extract regional brain and organ time-activity curves (TACs) with VivoQuant® 2020 software (Invicro, Needham, MA, USA) and Amide (1.0.4)[52]. The selected organs (a total of 12) include brain, lungs, heart wall, heart content, liver, stomach content, spleen, kidneys, small intestine content, upper large intestine content, lower large intestine content, and urinary bladder content. Normalized cumulated activities of each organ were calculated using trapezoidal integration of the area under the TACs plus extrapolation of the TAC to infinity with natural decay of the radiotracer. Dose assessment was performed with OLINDA/EXM 1.1 to calculate the effective dose and the effective dose equivalent. SUV were calculated by normalizing regional radioactivity for injected radioactivity and body weight.

inhibition at 10 µM (MAO-B)	Ki [1]	Ki [2]	Ki [3]	inhibition at 10 µM [4]	SMILES	estimated whole-body effective dose ([5]; adult female model, from rat data)	estimated whole-body effective dose ([5]; adult male model, from rat data)	highest absorbed dose, large intestine ([5]; from rat data)	uptake of radioactivity (normalized cumulated activity), large intestines ([5]; rats, n = 6)	uptake of radioactivity (normalized cumulated activity), liver ([5]; rats, n = 6)	uptake of radioactivity (normalized cumulated activity), small intestine ([5]; rats, n = 6)
37%	6.5 ± 0.4 nM	4.4 nM	4.8 ± 0.3 nM	62.9%	COC1CCCN(c2ccc(-c3cc4cc(O)ccc4[nH]3)c(F)n2)C1 (centres unmarked) [OXD-2314, 2-(2-fluoro-6-(3-methoxypiperidin-1-yl)pyridin-3-yl)-1H-indol-5-ol]						
					CO[C@H]1CCCN(c2ccc(-c3cc4cc(O)ccc4[nH]3)c([18F])n2)C1 [[^18F]OXD-2314]	22.5 ± 0.9 µSv/MBq	21.3 ± 3.1 µSv/MBq	50.6 ± 16.9 µGy/MBq	0.067 ± 0.032 MBqOrgan⋅hr/MBqInjected	0.147 ± 0.023 MBqOrgan⋅hr/MBqInjected	0.075 ± 0.019 MBqOrgan⋅hr/MBqInjected
